Target: T1, gamma-secretase (Homo sapiens, UniProt P49768)
T1 construct: partially purified extract of IMR-32 cell membranes as the gamma-secretase enzyme preparation; endogenous in cells; host or cells: IMR-32 cell membranes (partially purified extract)
Assay: Gamma-secretase APP enzyme assay
Type: biochemical
Conditions: cleavage of MBP-C125 Swe substrate at the Aβ40 site, partially purified extract of IMR-32 cell membranes, ELISA
Excerpt: The gamma-secretase APP enzyme assay was designed to measure the specific proteolytic cleavage of an APP substrate (MBP-C125 Swe fusion protein) at the Aβ40 site. The assay used a partially purified extract of IMR-32 cell membranes as the gamma-secretase enzyme preparation and a recombinant fusion protein containing the C-terminal 125 amino acids of the Swedish variant of the APP (MBP-C125swe) as the substrate. This assay involved two steps beginning with the enzymatic reaction generating a cleavage product that was captured with an immobilized antibody specific for the neo-epitope Aβ40 site. The captured cleavage product was then detected in a sandwich ELISA assay with a biotinylated reporter antibody that is specific to Aβ (17-28). Streptavidin-linked alkaline phosphatase was then added that would generate a fluorescent signal proportional to the amount of cleavage product. This assay was used to discover small molecule inhibitors of gamma-secretase.
Briefly, a 149 mg/ml solution of BIGCHAP detergent was made with water at 42° C. and then rotated for 30 minutes at the same temperatures This warmed solution of BigCHAPS (N,N-Bis(3-D-gluconamidopropyl)cholamide) detergent was used to dissolve Brain Extract Type-V (lipid containing a minimum of 40% phosphatidylethanolamine) from Signa (St. Louis, Mo.) to a concentration of 8 mg/ml. This solution containing BigCHAPS and lipid at 8 mg/ml is then diluted to 0.53 mg/ml lipid with a pre-warmed solution of Hepes and sodium chloride. This final solution containing Hepes buffer, sodium chloride, BigCHAPS detergent and lipid is used to create working solutions of both gamma-secretase (25 Units) and the MBP-C125 substrate (0.05 mg/ml).
Gamma-secretase was then added to a 96-well micro-titre plate and then incubated with various concentrations of inhibitor for 30 minutes at 37° C. MBPC125 substrate was then added to initiate the reaction that would run for two hours at 37° C. The reaction was quenched with the addition of SDS to a final concentration of 0.1% and then 100 μl of the reaction mixture was transferred to a capture ELISA plate and incubated overnight at 4° C. Detection of the cleavage product was performed using a standard sandwich ELISA assay and quantified using a six point standard curve.

| IC50 (enantiomer A) | IC50 (enantiomer B) | IC50 | Compound |
| --- | --- | --- | --- |
| 0.1 to 100 nM | 0.1 to 100 nM | – | O=S(=O)(c1ccc(C(F)(F)F)nc1)N1c2ccc(F)cc2-c2n[nH]cc2C1C1CC1 (single isomer, unassigned) [4-cyclopropyl-8-fluoro-5-(6-(trifluoromethyl)pyridin-3-ylsulfonyl)-4,5-dihydro-2H-pyrazolo[4,3-c]quinoline] |
| – | – | 1000 to 10000 nM | CC1c2cn[nH]c2-c2cc(F)ccc2N1S(=O)(=O)c1ccc(-c2ccccn2)s1 (stereo not shown) [8-fluoro-4-methyl-5-(5-(pyridin-2-yl)thiophen-2-ylsulfonyl)-4,5-dihydro-1H-pyrazolo[4,3-c]quinoline] |
| – | – | 0.1 to 100 nM | COc1ccc2c(c1)N(S(=O)(=O)c1ccc(Cl)cc1)C(C)c1c[nH]nc1-2 (stereo not shown) [5-[(4-chlorophenyl)sulfonyl]-7-methoxy-4-methyl-4,5-dihydro-1H-pyrazolo[4,3-c]quinoline] |
| 101 to 500 nM | 0.1 to 100 nM | – | CC1c2cn[nH]c2C2CCCCC2N1S(=O)(=O)c1ccc(Cl)cc1 (single isomer, unassigned) [5-(4-chlorophenylsulfonyl)-4-methyl-4,5,5a,6,7,8,9,9a-octahydro-1H-pyrazolo[4,3-c]quinoline] |
| 101 to 500 nM | 0.1 to 100 nM | – | O=S(=O)(c1ccc(C(F)(F)F)cn1)N1c2ccc(F)cc2-c2[nH]ncc2C1C1CC1 (single isomer, unassigned) [4-cyclopropyl-8-fluoro-5-(5-(trifluoromethyl)pyridin-2-ylsulfonyl)-4,5-dihydro-1H-pyrazolo[4,3-c]quinoline] |
| – | – | 0.1 to 100 nM | CC1c2c[nH]nc2-c2cc(O)ccc2N1S(=O)(=O)c1ccc(Cl)cc1 (stereo not shown) [5-(4-chlorophenylsulfonyl)-4-methyl-4,5-dihydro-2H-pyrazolo[4,3-c]quinolin-8-ol] |
| – | – | 0.1 to 100 nM | O=S(=O)(c1ccc(C(F)(F)F)cc1)N1c2cccnc2-c2n[nH]cc2C1C1CC1 (stereo not shown) [4-cyclopropyl-5-(4-(trifluoromethyl)phenylsulfonyl)-4,5-dihydro-2H-pyrazolo[4,3-c][1,5]naphthyridine] |
| – | – | 501 to 1000 nM | O=S(=O)(c1ccc(Cl)cc1)N1Cc2c[nH]nc2-c2cc(Cl)ccc21 [8-chloro-5-[(4-chlorophenyl)sulfonyl]-4,5-dihydro-2H-pyrazolo[4,3-c]quinoline] |
| 0.1 to 100 nM | 0.1 to 100 nM | – | O=S(=O)(c1ccc(C(F)(F)F)nc1)N1c2cc(F)c(F)cc2-c2[nH]ncc2C1C1CC1 (single isomer, unassigned) [4-cyclopropyl-7,8-difluoro-5-(6-(trifluoromethyl)pyridin-3-ylsulfonyl)-4,5-dihydro-1H-pyrazolo[4,3-c]quinoline] |
| – | – | 0.1 to 100 nM | CC1c2cn[nH]c2-c2ncccc2N1S(=O)(=O)c1ccc(Cl)cc1 (stereo not shown) [5-[(4-chlorophenyl)sulfonyl]-4-methyl-4,5-dihydro-1H-pyrazolo[4,3-c]-1,5-naphthyridine] |
| – | – | 0.1 to 100 nM | O=S(=O)(c1ccc(Cl)s1)N1c2cc(F)c(F)cc2-c2n[nH]cc2C1C1CC1 (stereo not shown) [5-(5-chlorothiophen-2-ylsulfonyl)-4-cyclopropyl-7,8-difluoro-4,5-dihydro-2H-pyrazolo[4,3-c]quinoline] |
| – | – | 0.1 to 100 nM | O=S(=O)(c1ccc(C(F)(F)F)cc1)N1c2cc(F)c(F)cc2-c2[nH]ncc2C1c1cccnc1 (stereo not shown) [7,8-difluoro-4-(pyridin-3-yl)-5-(4-(trifluoromethyl)phenylsulfonyl)-4,5-dihydro-1H-pyrazolo[4,3-c]quinoline] |
| – | – | 1000 to 10000 nM | O=c1c2cnn(S(=O)(=O)c3ccc(Cl)cc3)c2c2ccccc2n1S(=O)(=O)c1ccc(Cl)cc1 [1,5-bis(4-chlorophenylsulfonyl)-1H-pyrazolo[4,3-c]quinolin-4(5H)-one] |
| – | – | 0.1 to 100 nM | O=S(=O)(c1ccc(C(F)(F)F)nc1)N1c2cc(F)c(F)cc2-c2[nH]ncc2C1C1CC1 (stereo not shown) [4-cyclopropyl-7,8-difluoro-5-(6-(trifluoromethyl)pyridin-3-ylsulfonyl)-4,5-dihydro-1H-pyrazolo[4,3-c]quinoline] |
| – | – | 0.1 to 100 nM | O=S(=O)(c1ccc(F)cc1)N1c2ccccc2-c2n[nH]cc2C1C1CC1 (stereo not shown) [4-cyclopropyl-5-(4-fluorophenylsulfonyl)-4,5-dihydro-2H-pyrazolo[4,3-c]quinoline] |
| – | – | 0.1 to 100 nM | O=S(=O)(c1ccc(C(F)(F)F)cc1)N1c2ccccc2-c2[nH]ncc2C12CC2 [5′-(4-(trifluoromethyl)phenylsulfonyl)-1′,5′-dihydrospiro[cyclopropane-1,4′-pyrazolo[4,3-c]quinoline]] |

| IC50 (enantiomer A) | IC50 (enantiomer B) | IC50 | Compound |
| --- | --- | --- | --- |
| – | – | 0.1 to 100 nM | O=S(=O)(c1ccc(OC(F)F)cc1)N1c2ccc(F)cc2-c2n[nH]cc2C1C1CC1 (stereo not shown) [4-cyclopropyl-5-(4-(difluoromethoxy)phenylsulfonyl)-8-fluoro-4,5-dihydro-1H-pyrazolo[4,3-c]quinoline] |
| – | – | 0.1 to 100 nM | O=S(=O)(c1ccc(F)cc1)N1c2ncccc2-c2n[nH]cc2C1C(F)(F)F (stereo not shown) [5-(4-fluorophenylsulfonyl)-4-(trifluoromethyl)-4,5-dihydro-2H-pyrazolo[4,3-c][1,8]naphthyridine] |
| – | – | 0.1 to 100 nM | CC(C)C1c2c[nH]nc2-c2ccccc2N1S(=O)(=O)c1ccc(Cl)cc1 (stereo not shown) [5-(4-chlorophenylsulfonyl)-4-isopropyl-4,5-dihydro-2H-pyrazolo[4,3-c]quinoline] |
| – | – | 501 to 1000 nM | O=S(=O)(c1ccc(C(F)(F)F)cc1)N1c2nccn2-c2[nH]ncc2C1C1CC1 (stereo not shown) [4-cyclopropyl-5-(4-(trifluoromethyl)phenylsulfonyl)-4,5-dihydro-1H-imidazo[1,2-a]pyrazolo[4,3-e]pyrimidine] |
| – | – | 0.1 to 100 nM | O=S(=O)(c1ccc(C(F)(F)F)nc1)N1c2cc(OC(F)(F)F)ccc2-c2n[nH]cc2[C@H]1C1CC1 [(R)-4-cyclopropyl-7-(trifluoromethoxy)-5-(6-(trifluoromethyl)pyridin-3-ylsulfonyl)-4,5-dihydro-2H-pyrazolo[4,3-c]quinoline] |
| – | – | 0.1 to 100 nM | CC1c2c[nH]nc2-c2ccncc2N1S(=O)(=O)c1ccc(Cl)cc1 (stereo not shown) [5-(4-chlorophenylsulfonyl)-4-methyl-4,5-dihydro-2H-pyrazolo[4,3-c][1,7]naphthyridine] |
| – | – | 0.1 to 100 nM | O=S(=O)(c1ccc(C(F)(F)F)cc1)N1c2cc(F)c(F)cc2-c2[nH]ncc2C1C1CC1 (single isomer, unassigned) [4-cyclopropyl-7,8-difluoro-5-(4-(trifluoromethyl)phenylsulfonyl)-4,5-dihydro-1H-pyrazolo[4,3-c]quinoline] |
| – | – | 1000 to 10000 nM | O=c1c2cn[nH]c2c2cc(F)ccc2n1S(=O)(=O)c1ccc(Cl)cc1 [5-(4-chlorophenylsulfonyl)-8-fluoro-1H-pyrazolo[4,3-c]quinolin-4(5H)-one] |
| – | – | 0.1 to 100 nM | O=S(=O)(c1ccc(C(F)(F)F)nc1)N1c2cc(C(F)(F)F)ccc2-c2[nH]ncc2[C@H]1C1CC1 [(R)-4-cyclopropyl-7-(trifluoromethyl)-5-(6-(trifluoromethyl)pyridin-3-ylsulfonyl-4,5-dihydro-1H-pyrazolo[4,3-c]quinoline] |
| – | – | 0.1 to 100 nM | CC1c2c[nH]nc2-c2cc(F)ccc2N1S(=O)(=O)c1ccc(Cl)cc1 (single isomer, unassigned) [5-[(4-chlorophenyl)sulfonyl]-8-fluoro-4-methyl-4,5-dihydro-2H-pyrazolo[4,3-c]quinoline] |
| 0.1 to 100 nM | 101 to 500 nM | – | CC1c2cn[nH]c2-c2cc(O)c(O)cc2N1S(=O)(=O)c1ccc(Cl)cc1 (single isomer, unassigned) [5-(4-chlorophenylsulfonyl)-4-methyl-4,5-dihydro-1H-pyrazolo[4,3-c]quinoline-7,8-diol] |
| – | – | 101 to 500 nM | CC1c2c[nH]nc2-c2cc(F)ccc2N1S(=O)(=O)c1cnn(C)c1 (stereo not shown) [8-fluoro-4-methyl-5-(1-methyl-1H-pyrazol-4-ylsulfonyl)-4,5-dihydro-1H-pyrazolo[4,3-c]quinoline] |
| – | – | 0.1 to 100 nM | Nc1ccc(S(=O)(=O)N2c3cc(F)c(F)cc3-c3[nH]ncc3[C@H]2C2CC2)cc1 [(R)-4-(4-cyclopropyl-7,8-difluoro-1H-pyrazolo[4,3-c]quinolin-5(4H)-ylsulfonyl)aniline] |
| – | – | 101 to 500 nM | CC1c2cn[nH]c2-c2cc(F)ccc2N1S(=O)(=O)c1cccnc1 (racemic) [8-fluoro-4-methyl-5-(pyridin-3-ylsulfonyl)-4,5-dihydro-1H-pyrazolo[4,3-c]quinoline] |
| – | – | 0.1 to 100 nM | CC1c2cn[nH]c2-c2cc(F)c(F)cc2N1S(=O)(=O)c1ccc(Cl)s1 (stereo not shown) [5-(5-chlorothiophen-2-ylsulfonyl)-7,8-difluoro-4-methyl-4,5-dihydro-1H-pyrazolo[4,3-c]quinoline] |
| – | – | 0.1 to 100 nM | O=S(=O)(c1ccc(OC(F)(F)F)cc1)N1c2ccc(F)cc2-c2[nH]ncc2[C@H]1C1CC1 [(R)-4-cyclopropyl-8-fluoro-5-(4-(trifluoromethoxy)phenylsulfonyl)-4,5-dihydro-1H-pyrazolo[4,3-c]quinoline] |
